Laboratory results published in PubChem BioAssay AID1199 (EPA DSSTox, 2008).
Calls of active or inactive are those of the source.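 Rule for the calls: active = a tumour-causing dose and a tumour site recorded for mice in at least one sex group; inconclusive = only government mouse studies exist and were judged inadequate; inactive = mouse studies exist but none gave tumours.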

test system: mouse carcinogenicity bioassay, TD50 from CPDB; test: DSSTox (CPDBAS) Carcinogenic Potency Database Summary Mouse Bioassay Results; details: not given
Method in brief: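 Chronic long-term mouse cancer bioassays from literature and NCI/NTP, compiled per sex. TD50 is the standardized carcinogenic potency, using the most positive experiment per sex-species; target sites follow author opinion.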

SMILES	Potency [mmol/kg/day]
O=NN1CCCCC1	0.0114

same assay, conditions: TD50_Mouse_Note: TD50_Mouse_mmol was not calculated for this mixture, but Activiity Score is assigned value of 50 to indicate active

SMILES	outcome
COc1cc2c(c3oc(=O)c4c(c13)CCOC4=O)C1C=COC1O2 (stereo not drawn)	active; hematopoietic system

same assay, conditions: TD50_Mouse_Note: TD50 is harmonic mean of more than one positive test; TD50_Mouse_mmol was not calculated for this mixture, but Activiity; TargetSites_Mouse_Female: liver

SMILES	outcome
CCn1c2ccccc2c2cc(N)ccc21	active; liver

same assay, conditions: TD50_Mouse_Note: TD50 is harmonic mean of more than one positive test; TargetSites_Mouse_Female: adrenal gland; liver

SMILES	Potency [mmol/kg/day]
ClCC(Cl)Cl	0.412

same assay, conditions: TD50_Mouse_Note: TD50 is harmonic mean of more than one positive test; TargetSites_Mouse_Female: hematopoietic system; liver; vascular system

SMILES	Potency [mmol/kg/day]
FC(F)=C(F)F	0.719

same assay, conditions: TD50_Mouse_Note: TD50 is harmonic mean of more than one positive test; TargetSites_Mouse_Female: hematopoietic system; stomach

SMILES	Potency [mmol/kg/day]
O=P(OCCCl)(OCCCl)OCCCl	3.39

same assay, conditions: TD50_Mouse_Note: TD50 is harmonic mean of more than one positive test; TargetSites_Mouse_Female: kidney; stomach

SMILES	Potency [mmol/kg/day]
O=C(O)/C=C/c1ccc(O)c(O)c1	27.2

same assay, conditions: TD50_Mouse_Note: TD50 is harmonic mean of more than one positive test; TargetSites_Mouse_Female: liver

SMILES	Potency [mmol/kg/day]
COc1ccccc1[N+](=O)[O-]	1.16
Nc1cc(Cl)c(N)c(Cl)c1	4.54
Nc1ccc(Cl)cc1N	9.4
CCn1c2ccccc2c2cc(N)ccc21	0.156
Cc1cc(O)c2c(c1O)C(=O)C13C(=C2O)C(=O)C2C(O)C1C1C(O)C3C(=O)C3=C(O)c4c(O)cc(C)c(O)c4C(=O)C321 (stereo not drawn)	0.0324
C=CCc1ccc(OC)c(OC)c1	0.108
O=C(O)C(Cl)(Cl)Cl	3.57
O=c1cc[nH]c(=S)[nH]1	0.429
CN(C)c1ccc(C(=O)c2ccc(N(C)C)cc2)cc1	0.313
Cc1ccc(N)cc1N	1.04

same assay, conditions: TD50_Mouse_Note: TD50 is harmonic mean of more than one positive test; TargetSites_Mouse_Female: liver; lung

SMILES	Potency [mmol/kg/day]
ClCCl	13
CNN	0.164

same assay, conditions: TD50_Mouse_Note: TD50 is harmonic mean of more than one positive test; TargetSites_Mouse_Female: liver; vascular system

SMILES	Potency [mmol/kg/day]
O=C1c2ccccc2CN2C(=O)c3ccccc3CN12	3.27

same assay, conditions: TD50_Mouse_Note: TD50 is harmonic mean of more than one positive test; TargetSites_Mouse_Female: lung

SMILES	Potency [mmol/kg/day]
CC(=O)NNC(=O)c1ccncc1	1.84
CNN	0.0189

same assay, conditions: TD50_Mouse_Note: TD50 is harmonic mean of more than one positive test; TargetSites_Mouse_Female: lung; vascular system

SMILES	Potency [mmol/kg/day]
NNC(N)=O	2

same assay, conditions: TD50_Mouse_Note: TD50 is harmonic mean of more than one positive test; TargetSites_Mouse_Female: no positive results

SMILES	Potency [mmol/kg/day]
OC(O)C(Cl)(Cl)Cl	0.604

same assay, conditions: TD50_Mouse_Note: TD50 is harmonic mean of more than one positive test; TargetSites_Mouse_Female: stomach

SMILES	Potency [mmol/kg/day]
NC(=O)CCCCn1ccc(NC(N)=NCC(F)(F)F)n1	1.84
c1cc(OCC2CO2)cc(OCC2CO2)c1 (stereo not drawn)	0.109
Oc1ccccc1O	2.22

same assay, conditions: TD50_Mouse_Note: TD50 is harmonic mean of more than one positive test; TargetSites_Mouse_Female: vascular system

SMILES	Potency [mmol/kg/day]
NNc1ccccc1	0.493

same assay, conditions: TD50_Mouse_Note: TD50 is harmonic mean of more than one positive test; greater than ten-fold variation among TD50 values for positive res; TargetSites_Mouse_Female: liver; lung

SMILES	Potency [mmol/kg/day]
O=S(=O)(O)O	0.0583

same assay, conditions: TD50_Mouse_Note: TD50 is harmonic mean of more than one positive test; greater than ten-fold variation among TD50 values for positive res; TargetSites_Mouse_Female: stomach

SMILES	Potency [mmol/kg/day]
NC(=O)/C(=C\c1ccc([N+](=O)[O-])o1)c1ccco1	0.528

same assay, conditions: TD50_Mouse_Note: TD50 is harmonic mean of more than one positive test; greater than ten-fold variation among TD50 values for positive res; TargetSites_Mouse_Female: vascular system

SMILES	Potency [mmol/kg/day]
Cc1cc(Cl)ccc1N	0.145

same assay, conditions: TD50_Mouse_Note: TD50 is harmonic mean of more than one positive test; no positive results are statistically significant; TargetSites_Mouse_Female: no positive results

SMILES	Potency [mmol/kg/day]
COc1ccc(O)c(C(C)(C)C)c1	30.7

same assay, conditions: TD50_Mouse_Note: no positive results

SMILES	outcome
O=[Se]=O	inactive
CC12CCC(CC1)C(C)(C)O2	inactive; no positive results
O.O.O.O.O.O.O.O.O=S(=O)([O-])[O-].O=S(=O)([O-])[O-].O=S(=O)([O-])[O-].[Cd+2].[Cd+2].[Cd+2]	inactive; no positive results

same assay, conditions: TD50_Mouse_Note: no positive results; TargetSites_Mouse_BothSexes: no positive results

SMILES	outcome
O=[As]O	inactive

same assay, conditions: TD50_Mouse_Note: no positive results; TargetSites_Mouse_Female: no positive results

SMILES	outcome
C=Cc1ccc(C)cc1	inactive; no positive results
Cc1ccc([N+](=O)[O-])cc1	inactive; no positive results
FC(Cl)(Cl)Cl	inactive; no positive results
ClC1=C(Cl)C(Cl)(Cl)C(Cl)=C1Cl	inactive; no positive results
O=S(=O)(Oc1ccc(Cl)cc1)c1ccc(Cl)cc1	inactive; no positive results
Oc1ccccc1-c1ccccc1	inactive; no positive results
Nc1ccc([N+](=O)[O-])cc1N	inactive; no positive results
O=C1C(c2[nH]c3ccc(S(=O)(=O)O)cc3c2O)=Nc2ccc(S(=O)(=O)O)cc21	inactive; no positive results
C=Cc1cccc[n+]1[O-]	inactive
CCN=c1cc2oc3cc(NCC)c(C)cc3c(-c3ccccc3C(=O)OCC)c-2cc1C	inactive; no positive results
Cc1cc(OC(=O)N(C)C)n(C(C)C)n1	inactive; no positive results
O=C(NCC1CCCCN1)c1cc(OCC(F)(F)F)ccc1OCC(F)(F)F (stereo not drawn)	inactive; no positive results
CNc1ncnc2nc[nH]c12	inactive; no positive results
Cc1ccc2ccccc2c1	inactive; no positive results
Clc1ccccc1Cl	inactive; no positive results
NNc1ccccc1	inactive
Cc1c(N(C)C)c(=O)n(-c2ccccc2)n1C	inactive; no positive results
IC(I)I	inactive; no positive results
CN(C)C(=S)SC(=S)N(C)C	inactive; no positive results
O=[N+]([O-])c1ccc(Nc2ccc(Nc3ccccc3)c(S(=O)(=O)O)c2)c([N+](=O)[O-])c1	inactive; no positive results
Cc1ccc(/C(=C\CN2CCCC2)c2ccccn2)cc1	inactive; no positive results
CCOP(=S)(OCC)Oc1ccc([N+](=O)[O-])cc1	inactive; no positive results
O=C1C(Cl)=C(Cl)C(=O)c2ccccc21	inactive; no positive results

SMILES	outcome
O=[N+]([O-])/C=C/c1ccccc1	inactive; no positive results
CN1C(=O)C(O)N=C(c2ccccc2)c2cc(Cl)ccc21 (stereo not drawn)	inactive; no positive results
CCN(CC)CC#CC(C)(C)OC(=O)C(O)(c1ccccc1)C1CCCCC1 (stereo not drawn)	inactive; no positive results
CCN(CC)C(=O)Nc1ccc(OCC(O)CNC(C)(C)C)c(C(C)=O)c1 (stereo not drawn)	inactive; no positive results
CCCCCl	inactive; no positive results
BrC(Br)Br	inactive; no positive results
O=C(O)CN(CCN(CC(=O)O)CC(=O)O)CC(=O)O	inactive; no positive results
Cc1c(N)cccc1N	inactive; no positive results
COP(=S)(OC)Oc1ccc(SC)c(C)c1	inactive; no positive results
c1ccc(Nc2ccc(Nc3ccccc3)cc2)cc1	inactive; no positive results
NC(=S)Nc1ccccc1	inactive; no positive results
CN=C(NC#N)NCCSCc1nc[nH]c1C	inactive
CCCCC(CC)COC(=O)COc1ccc(Cl)cc1Cl (stereo not drawn)	inactive; no positive results
CNc1ncnc2c1ncn2[C@@H]1O[C@H](CO)[C@@H](O)[C@H]1O	inactive; no positive results
CC(=O)[O][Sn]([c]1ccccc1)([c]1ccccc1)[c]1ccccc1	inactive; no positive results
COc1ccc(N)c(OC)c1	inactive; no positive results
COc1cc(/C=C/C(=O)CC(=O)/C=C/c2ccc(O)c(OC)c2)ccc1O	inactive; no positive results
c1ccc2cc(Nc3ccc(Nc4ccc5ccccc5c4)cc3)ccc2c1	inactive; no positive results
CC(C)NCC(O)COc1cccc2ccccc12 (stereo not drawn)	inactive; no positive results
C=C1C[C@]23C[C@@]1(O)CC[C@H]2[C@@]12C=C[C@H](O)[C@@](C)(C(=O)O1)[C@H]2[C@@H]3C(=O)O	inactive; no positive results
Nc1ccc(NC(=O)c2ccc(N)cc2)cc1	inactive; no positive results
Nc1nc(N)nc(-c2ccccc2)n1	inactive; no positive results

same assay, conditions: TD50_Mouse_Note: positive test results only by intraperitoneal or intravenous injection; TD50 is harmonic mean of more than one positive; TargetSites_Mouse_Female: hematopoietic system; lung; uterus; vascular system

SMILES	Potency [mmol/kg/day]
CN(C)/N=N/c1nc[nH]c1C(N)=O	0.0053

same assay, conditions: TD50_Mouse_Note: positive test results only by intraperitoneal or intravenous injection; TD50 is harmonic mean of more than one positive; TargetSites_Mouse_Female: hematopoietic system; mammary gland; skin

SMILES	Potency [mmol/kg/day]
Nc1ncn([C@@H]2O[C@H](CO)[C@@H](O)[C@H]2O)c(=O)n1	0.000317

same assay, conditions: TargetSites_Mouse_BothSexes: liver; mammary gland

SMILES	Potency [mmol/kg/day]
COc1cc(/C=N/NC(=O)c2ccncc2)ccc1O	0.101

same assay, conditions: TargetSites_Mouse_BothSexes: no positive results

SMILES	outcome
CCCCCCC(=O)/C=C/CCCCCCCCC(=O)OC	inactive
O=C(O)C1[O][Sb]2[O]C(=O)C([O]2)C(C(=O)O)[O][Sb]2[O]C(=O)C1[O]2 (stereo not drawn)	inactive
C[C@H](CCC(=O)O)[C@H]1CC[C@H]2[C@@H]3[C@H](O)C[C@@H]4C[C@H](O)CC[C@]4(C)[C@H]3CC[C@]12C	inactive

same assay, conditions: TargetSites_Mouse_Female: liver

SMILES	Potency [mmol/kg/day]
CCCc1c(OCCCCc2nn[nH]n2)ccc(C(C)=O)c1O	0.352
Nc1cc(Cl)cc(C(=O)O)c1Cl	25.4
C1CCOC1	18
O=C1NC(=O)C(c2ccccc2)(c2ccccc2)N1	0.234
CC(=O)Nc1ccc(N=Nc2cc(C)ccc2O)cc1	3.79
Cc1ccc(N)cc1N	0.219

same assay, conditions: TargetSites_Mouse_Female: liver; vascular system

SMILES	Potency [mmol/kg/day]
Cc1ccc(N=C=O)cc1N=C=O	1.44

same assay, conditions: TargetSites_Mouse_Female: no positive results

SMILES	Potency [mmol/kg/day]
C=O	1.46
O=C(O)[C@@H]1[C@H](C(=O)O)[C@@]2(Cl)C(Cl)=C(Cl)[C@]1(Cl)C2(Cl)Cl	0.363
CCCCC1C(=O)N(c2ccccc2)N(c2ccccc2)C1=O	1.14
N[C@@H](CCC(=O)NNc1ccc(C(=O)O)cc1)C(=O)O	0.985
OCc1ccco1	2.68
CCCCCC(N)=O	16.9

same assay, conditions: TargetSites_Mouse_Female: ovary

SMILES	Potency [mmol/kg/day]
O=C1CN(/N=C/c2ccc([N+](=O)[O-])o2)C(=O)N1	5.88

same assay, conditions: TargetSites_Mouse_Female: stomach

SMILES	Potency [mmol/kg/day]
NNc1nc(-c2ccc([N+](=O)[O-])o2)cs1	0.0725

same assay, conditions: TargetSites_Mouse_Female: uterus

SMILES	Potency [mmol/kg/day]
COP(=O)(OC)OC	2.39
